Reference: patent publication US11076595B2, “1-(n,n-disubstituted carbamoyl) 4-(substituted sulfonyl)triazolin-5-one derivative, 4-(n,n-disubstituted carbamoyl) 1-(substituted sulfonyl)triazolin-5-one derivative, and herbicide containing said derivative as active ingredient” (HOKKO CHEMICAL INDUSTRY CO., LTD., priority 2017, dated 2021)

Key:
Type in all cases: in vivo
[1] = system: Echinochloa crus-galli; assay: Test Example 11: herbicidal effect test by soil treatment in paddy field; settings: 120 g/10a active ingredient, 14 days after treatment
Summary of the method: (§1)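 Pre-emergence paddy test, 120 g a.i./10 are, emulsifiable concentrate diluted in water and added dropwise to ~3 cm flood water right after sowing (30 seeds/species, 0–1 cm depth, fertilized puddled soil). Greenhouse; 2 replicates; dry-weight suppression (%) vs untreated, day 14.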

[2] = system: Lindernia pyxidaria; assay: as above; settings: 120 g/10a active ingredient, 14 days after treatment
Summary of the method: as §1

[3] = system: Monochoria vaginalis; assay: as above; settings: 120 g/10a active ingredient, 14 days after treatment
Summary of the method: as §1

[4] = system: Scirpus juncoides; assay: as above; settings: 120 g/10a active ingredient, 14 days after treatment
Summary of the method: as §1

[5] = system: Echinochloa crus-galli; assay: Test Example 12: herbicidal effect test by treatment during growing period in paddy field; settings: 120 g/10a; treatment seven days after sowing in flooded paddy pot; assessed 14 days after treatment
Summary of the method: (§2)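 Weed suppression (%) = (1 − treated/untreated mean dry weight) × 100, scored 14 days after treatment with two replicates per plot. Dose 120 g a.i. per 10 are, as diluted emulsifiable concentrate added dropwise to flooded pots (water about 3 cm) 7 days post-sowing, seeds at 0-1 cm.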

[6] = system: Lindernia pyxidaria; assay: as above; settings: 120 g/10a; treatment seven days after sowing in flooded paddy pot; assessed 14 days after treatment
Summary of the method: as §2

[7] = system: Monochoria vaginalis; assay: as above; settings: 120 g/10a; treatment seven days after sowing in flooded paddy pot; assessed 14 days after treatment
Summary of the method: as §2

[8] = system: Scirpus juncoides; assay: as above; settings: 120 g/10a; treatment seven days after sowing in flooded paddy pot; assessed 14 days after treatment
Summary of the method: as §2

[9] = system: Amaranthus viridis; assay: Test Example 13: herbicidal effect test by soil treatment in upland field; settings: 120 g/10a, 14 days after treatment
Summary of the method: (§3)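 Pre-emergence soil spray, 1 d post-sowing; emulsifiable concentrate in water, 100 L/10 are, 120 g a.i./10 are. Pots 36 cm^2, alluvial soil, 20 seeds/species in top 1 cm. n=2; read 14 d; suppression % = (1 − treated/untreated mean dry weight) × 100.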

[10] = system: Chenopodium album; assay: as above; settings: 120 g/10a, 14 days after treatment
Summary of the method: as §3

[11] = system: Echinochloa crus-galli; assay: as above; settings: 120 g/10a, 14 days after treatment
Summary of the method: as §3

[12] = system: crabgrass; assay: as above; settings: 120 g/10a, 14 days after treatment
Summary of the method: as §3

[13] = system: Chenopodium album; assay: Test Example 14: herbicidal effect test by foliage treatment in upland field; settings: 7 days after sowing, 120 g/10a, 14 days after treatment
Summary of the method: (§4)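 Dry-weight read-out: suppression (%) = (1 − mean treated dry weight/mean untreated dry weight)×100, at 14 days post-spray, two replicate plots per concentration. Spray applied 7 days after sowing, 120 g a.i. per 10 are.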

[14] = system: crabgrass; assay: as above; settings: 7 days after sowing, 120 g/10a, 14 days after treatment
Summary of the method: as §4

[15] = system: Amaranthus viridis; assay: as above; settings: 7 days after sowing, 120 g/10a, 14 days after treatment
Summary of the method: as §4

[16] = system: Echinochloa crus-galli; assay: as above; settings: 7 days after sowing, 120 g/10a, 14 days after treatment
Summary of the method: as §4

Row | Compound | Weed suppression rate (%) Echinochloa crus-galli [1] [%] | Weed suppression rate (%) Lindemia pyxidaria [2] [%] | Weed suppression rate (%) Monochoria vaginalis [3] [%] | Weed suppression rate (%) Scirpus juncoides [4] [%] | Weed suppression rate (%) Echinochloa crus-galli [5] [%] | Weed suppression rate (%) Lindemia pyxidaria [6] [%] | Weed suppression rate (%) Monochoria vaginalis [7] [%] | Weed suppression rate (%) Scirpus juncoides [8] [%] | herbicidal effect, Amaranthus viridis [9] [%] | herbicidal effect, Chenopodium album [10] [%] | herbicidal effect, Echinochloa crus-galli [11] [%] | herbicidal effect, Crabgrass [12] [%] | herbicidal effect, Chenopodium album [13] [%] | herbicidal effect, Crabgrass [14] [%] | herbicidal effect, Amaranthus viridis [15] [%] | herbicidal effect, Echinochloa crus-galli [16] [%]
1 | CC(C)N(C(=O)n1cnn(S(=O)(=O)C2CCCCC2)c1=O)c1ccc(F)c(F)c1F [Compound 11-297] | 100 | 100 | 90 | 100 | 100 | 70 | 100 | 100 | 100 | 70 | 90 | 90 | 60 | 100 | 90 | 100
2 | CC(C)CN(C)S(=O)(=O)n1ncn(C(=O)N(c2ccc(F)cc2F)C(C)C)c1=O [Compound 11-1101] | 90 | 90 | 90 | 90 | 90 | 80 | 80 | 90 | 90 | 80 | 80 | 90 | 80 | 90 | 90 | 80
3 | Cc1cc(C)c(S(=O)(=O)n2ncn(C(=O)N(c3ccc(F)cc3F)C(C)C)c2=O)c(C)c1 [Compound 11-863] | 100 | 100 | 100 | 100 | 90 | 90 | 90 | 90 | 50 | 50 | 60 | 70 | 70 | 60 | 50 | 70
4 | CC(C)N(C(=O)n1cnn(S(=O)(=O)C2CCC2)c1=O)c1ccc(F)cc1F [Compound 11-258] | 100 | 100 | 100 | 100 | 90 | 90 | 90 | 90 | 100 | 100 | 100 | 100 | 80 | 90 | 90 | 80
5 | CC(C)N(C(=O)n1cnn(S(C)(=O)=O)c1=O)c1c(F)cc(F)cc1F [Compound 11-16] | 100 | 100 | 90 | 90 | 100 | 90 | 100 | 100 | 100 | 70 | 100 | 100 | 70 | 100 | 30 | 100
6 | Cc1cc(C)c(S(=O)(=O)n2ncn(C(=O)N(c3ccc(F)cc3Cl)C(C)C)c2=O)c(C)c1 [Compound 11-870] | 90 | 80 | 80 | 90 | 90 | 80 | 80 | 90 | 90 | 80 | 80 | 90 | 80 | 90 | 90 | 80
7 | CC(C)N(C(=O)n1cnn(S(=O)(=O)C(C)C)c1=O)c1cccc(F)c1F [Compound 11-58] | 100 | 100 | 100 | 100 | 100 | 100 | 100 | 100 | 70 | 70 | 100 | 90 | 70 | 100 | 30 | 90
8 | CC(C)N(C(=O)n1cnn(S(=O)(=O)C2CC2)c1=O)c1ccc(Cl)cn1 [Compound 11-233] | 100 | 100 | 90 | 90 | 100 | 90 | 90 | 90 | 80 | 50 | 80 | 90 | 50 | 90 | 40 | 90
9 | CC(C)N(C(=O)n1cnn(S(=O)(=O)c2cccc(F)c2)c1=O)c1ccccc1 [Compound 11-427] | 100 | 80 | 60 | 60 | 90 | 90 | 90 | 90 | 40 | 60 | 70 | 90 | 60 | 90 | 40 | 40
10 | CC(C)N(C(=O)n1cnn(S(=O)(=O)C2CCCC2)c1=O)c1ccc(F)cc1F [Compound 11-273] | 100 | 100 | 90 | 90 | 100 | 90 | 90 | 90 | 60 | 90 | 90 | 100 | 80 | 90 | 90 | 80
